In the oligonucleotide strings, read from the 5' end, every base follows the letter of its sugar. An asterisk marks phosphorothioate; unmarked linkages are phosphodiester. Other units and linkages are bracketed, terminal groups are in braces. A string of capitals states the bases alone. e = 2'-O-(2-methoxyethyl) (MOE); [5mC] = 5-methylcytosine; d = 2'-deoxy (DNA)
Columns and labels:
mir-24-2 pri-miRNA = mir-24-2 pri-miRNA expression in HeLa cells; format: cell-based, human; details: 100 nM
Description: The expression levels of mir-24-2, let-7i , and let-7d were assessed in HeLa or T-24 cells treated with various uniform 2′-MOE oligomeric compounds targeting mature miRNAs. For example, using the transfection methods previously described, HeLa cells were treated with 100 nM of the oligomeric compound ISIS Number 327945 (SEQ ID NO: 363) targeting the mir-24-2 mature miRNA. Total RNA was isolated and expression levels of the mir-24-2 pri-miRNA were analyzed by real-time quantitative RT-PCR using a primer/probe set specific for the mir-24-2 pri-miRNA molecule [forward primer=ISIS 359358 (CCCTGGGCTCTGCCT; herein incorporated as SEQ ID NO.: 908), reverse primer-ISIS 359359 ([…]; herein incorporated as SEQ ID NO.: 909), and probe=ISIS 359360 (CGTGCCTACTGAGC; herein incorporated as SEQ ID NO.: 910)].

IL-12 mRNA = IL-12 mRNA in LPS-activated primary murine macrophages; format: cell-based, mouse; details: LPS-stimulated primary murine macrophages
TLR4 = TLR4 mRNA in primary murine macrophages; format: cell-based, mouse; details: LPS-stimulated and LPS- and IFN-gamma-stimulated macrophages
Description: Following the 24 hour treatment with LPS, the cells were lysed and RNA was isolated using the RNEASY 96™ kit, as described herein. mRNA expression was quantitated by real-time PCR, performed as described herein, using primer and probe sets to amplify and quantitate TLR4, IL-12 and IL-6 mRNA expression levels. Primers and probe for TLR4, designed using GenBank Accession number NM_021297.1, were: forward primer, 5′-[…]-3′ (SEQ ID NO: 2172), reverse primer, 5′-[…]-3′ (SEQ ID NO: 2173), probe 5′-FAM-[…]-TAMRA-3′ (SEQ ID NO: 2174). Primers and probe for IL-12, designed using GenBank Accession number M86671.1, were: forward primer, 5′-[…]-3′ (SEQ ID NO: 2175), reverse primer, 5′-[…]-3′ (SEQ ID NO: 2176), probe 5′-FAM-[…]-TAMRA-3′ (SEQ ID NO: 2177). Primers and probe for IL-6, designed using GenBank Accession number X54542.1, were: forward primer, 5′-[…]-3′ (SEQ ID NO: 2178), reverse primer, 5′-[…]-3′ (SEQ ID NO: 2179), probe 5′-FAM-[…]-TAMRA-3′ (SEQ ID NO: 2180). The amount of total RNA in each sample was determined using a Ribogreen Assay (Molecular Probes, Eugene, Oreg.), and expression levels of TLR4, IL-12 and IL-6 were normalized to total RNA.
TLR4 is the primary macrophage receptor for LPS. […]

IL-6 mRNA = IL-6 mRNA in LPS-activated primary murine macrophages; format: cell-based, mouse; details: IFN-gamma-stimulated and unstimulated cells, 75-600 nM
Description: To investigate the role of miRNAs in the immune response, oligomeric compounds of the present invention targeting miRNAs were tested for their effects upon lipopolysaccharide (LPS)-activated primary murine macrophages. Macrophages participate in the immune response, for example, in the recognition and phagocytosis of microorganisms, including bacteria. Interferon-gamma (IFN-gamma) released by helper T cells is one type of signal required for macrophage activation, and LPS can serve as an additional stimulus. LPS is a component of the gram-negative bacterial cell wall and acts as an agonist for toll-like receptor 4 (TLR4), the primary LPS receptor expressed by macrophages. The proinflammatory cytokines interleukin-12 (IL-12) and interleukin-6 (IL-6) are induced by LPS treatment of macrophages, thus the expression of the mRNAs encoding these cytokines was used to evaluate the response of macrophages to LPS following treatment with oligomeric compounds targeting miRNAs.
Macrophages were isolated as follows. Female C57B1/6 mice (Charles River Laboratories, Wilmington, Mass.) were injected intraperitoneally with 1 ml 3% thioglycollate broth (Sigma-Aldrich, St. Louis, Mo.), and peritoneal macrophage cells were isolated by peritoneal lavage 4 days later. The cells were plated in 96-well plates at 40,000 cells/well for one hour in serum-free RPMI adjusted to contain 10 mM HEPES (Invitrogen Life Technologies, Carlsbad, Calif.), allowed to adhere, then non-adherent cells were washed away and the media was replaced with RPMI containing 10 mM HEPES, 10% FBS and penicillin/streptomycin (“complete” RPMI; Invitrogen Life Technologies, Carlsbad, Calif.).
Oligomeric compounds were introduced into the cells using the non-liposomal transfection reagent FuGENE 6 Transfection Reagent (Roche Diagnostics Corp., Indianapolis, Ind.). Oligomeric compound was mixed with FuGENE 6 in 1 mL of serum-free RPMI to achieve a concentration of 10 μL FuGENE per 1000 nM oligomeric compound. The oligomeric compound/FuGENE complex was allowed to form at room temperature for 20 minutes. This mixture was diluted to the desired concentration of oligomeric compound by the addition of the appropriate volume of complete RPMI. The final ratio of FuGENE 6 to oligomeric compound was 1 μL of FuGENE 6 per 100 nM oligomeric compound. A volume of 100 μL of oligomeric compound/FuGENE/RPMI was added to each well of the 96-well plate in which the macrophages were cultured. Each oligomeric compound treatment was repeated in triplicate.
Following oligomeric compound treatment, cells were stimultated with LPS. Cells were cultured in the presence of the transfection complex for approximately 24 to 28 hours at 37° C. and 5% CO2, after which the medium containing the transfection complex was removed from the cells, and complete RPMI containing 100 ng/mL LPS (Sigma-Aldrich Corp., St. Louis, Mo.) was added to the cells for a period of approximately 24 hours. Control samples included (1) cells receiving no oligomeric compound, stimulated with LPS and (2) cells receiving neither oligomeric compound nor LPS treatment.
In another embodiment, following oligomeric compound treatment, cells were first activated by IFN-gamma, to amplify the response to LPS. Cells were cultured in the presence of the transfection complex for approximately 24 hours at 37° C. and 5% CO2, at which point the medium containing the transfection complex was removed from the cells, and complete RPMI containing 100 ng/mL recombinant mouse IFN-gamma (R&D Systems, Minneapolis, Minn.) was added to the cells. After the 4 hour treatment with INF-gamma, cells were treated with 100 ng/mL LPS for approximately 24 hours. Control samples included (1) cells receiving no oligomeric compound, stimulated with LPS and (2) cells receiving neither oligomeric compound nor LPS treatment. […]

let-7i pri-miRNA = let-7i pri-miRNA expression in HeLa cells; format: cell-based, human; details: 100 nM
Description: Using the transfection methods previously described, HeLa cells were treated with 100 nM of the oligomeric compound ISIS Number 327890 (SEQ ID NO: 308) targeting the let-7i mature miRNA. Total RNA was isolated and expression levels of the let-7i pri-miRNA were analyzed by real-time quantitative RT-PCR using a primer/probe set specific for the let-7i pri-miRNA molecule [forward primer-ISIS 341684 ([…]; herein incorporated as SEQ ID NO.: 777), reverse primer=ISIS 341685 ([…]; herein incorporated as SEQ ID NO.: 778), and probe=ISIS 341686 ([…]; herein incorporated as SEQ ID NO.: 779)].

let-7d pri-miRNA = let-7d pri-miRNA expression in T-24 cells; format: cell-based, human; details: 100 nM
Description: Using the transfection methods previously described, supra, T-24 cells were treated with 100 nM of the oligomeric compound ISIS Number 327926 (SEQ ID NO: 344) targeting the let-7d mature miRNA. Total RNA was isolated and expression levels of the let-7d pri-miRNA were analyzed by real-time quantitative RT-PCR using a primer/probe set specific for the let-7d pri-miRNA molecule (forward primer=ISIS 341678 (CCTAGGAAGAGGTAG TAGGTTGCA; herein incorporated as SEQ ID NO.: 771), reverse primer=ISIS 341679 ([…]; herein incorporated as SEQ ID NO.: 772), and probe=ISIS 341680 ([…]; herein incorporated as SEQ ID NO.: 773)).

CTGTTCCTGCTGAACTGAGCCA (anti-miR; chemistry not fully specified) [ISIS 327945, uniform 2′-MOE PS; targets mir-24-2]
increase in expression levels of the mir-24-2 pri-miRNA molecule (mir-24-2 pri-miRNA): approximately 35 fold

CCACATTGAGTTTCTTTAAG (e[5mC]*e[5mC]*eA*e[5mC]*eA*dT*dT*dG*dA*dG*dT*dT*dT*d[5mC]*dT*eT*eT*eA*eA*eG) [ISIS 229927, 5-10-5 2′-MOE gapmer PS targeting mouse TLR4 mRNA, positive control, reference compound]
IL-12 mRNA expression (IL-12 mRNA): dose-dependent reduction in IL-12
expression of TLR4 (TLR4): reduced the expression of TLR4 in a dose-dependent manner
IL-6 expression (IL-6 mRNA): some reduction in IL-6 expression

AGCACAAACTACTACCTCA (chemistry not fully specified) [ISIS 327890, uniform 2′-MOE PS; targets let-7i]
increase in expression levels of the let-7i pri-miRNA molecule (let-7i pri-miRNA): approximately 4 fold

ACTATGCAACCTACTACCTCT (chemistry not given here) [ISIS 327926, uniform 2′-MOE PS; targets let-7d]
increase in expression levels of the let-7d pri-miRNA molecule (let-7d pri-miRNA): approximately 1.7 fold
